Calls of active or inactive are those of the source. No cut-off for these calls is given here.
Tests used:
[1] = target: GTPase KRas (Homo sapiens, UniProt P01116, G12C); assay: Inhibition of KRAS G12C mutant (unknown origin) assessed as inhibition of SOS1-catalyzed nucleotide exchange measured by HTRF assay
[2] = tested on: NCI-H358; assay: Antiproliferative activity against human NCI-H358 cells harboring KRAS G12C mutant measured after 72 hrs by CCK-8 assay; assay type: functional, cell-based; details: NCI-H358, 72 h
[3] = tested on: A549; assay: Antiproliferative activity against human A549 cells harboring KRAS G12S mutant measured after 72 hrs by CCK-8 assay; assay type: functional, cell-based; details: A549, 72 h
[4] = tested on: NCI-H23; assay: Antiproliferative activity against human NCI-H23 cells harboring KRAS G12C mutant measured after 72 hrs by CCK-8 assay; assay type: functional, cell-based; details: NCI-H23, 72 h
[5] = tested on: von Hippel-Lindau disease tumor suppressor/GTPase KRas (Homo sapiens), P01116+P40337 [G12C]; assay: Protac activity at VHL/KRAS G12C mutant in human NCI-H23 cells assessed as induction of KRAS G12C mutant degradation by measuring downregulation of KRAS G12C protein level at 3 uM measured after 24 hrs by Western blot analysis; assay type: cell-based
[6] = target: T1, von Hippel-Lindau disease tumor suppressor/GTPase KRas (Homo sapiens, UniProt P01116+P40337, G12C); assay: Protac activity at VHL/KRAS G12C mutant in human NCI-H23 cells assessed as induction of KRAS G12C mutant degradation by measuring downregulation of KRAS G12C protein level measured after 24 hrs by Western blot analysis; assay type: cell-based
T1 sequence (P01116 whole entry G12C, stated change not applied): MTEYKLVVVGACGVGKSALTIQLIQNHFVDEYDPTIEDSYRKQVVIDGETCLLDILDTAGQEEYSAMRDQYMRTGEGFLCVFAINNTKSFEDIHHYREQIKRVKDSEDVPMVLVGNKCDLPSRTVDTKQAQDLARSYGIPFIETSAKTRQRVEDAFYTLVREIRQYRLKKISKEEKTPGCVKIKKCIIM
T1 sequence (P40337 whole entry, stated change not applied): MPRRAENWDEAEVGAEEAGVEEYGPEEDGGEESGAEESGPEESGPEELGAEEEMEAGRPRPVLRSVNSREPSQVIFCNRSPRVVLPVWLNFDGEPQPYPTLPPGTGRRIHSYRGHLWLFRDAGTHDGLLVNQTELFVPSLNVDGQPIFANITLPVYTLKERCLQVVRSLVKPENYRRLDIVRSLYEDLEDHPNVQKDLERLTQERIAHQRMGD

[7] = tested on: von Hippel-Lindau disease tumor suppressor/GTPase KRas (Homo sapiens), P01116+P40337 [G12C]; assay: Protac activity at VHL/KRAS G12C mutant in human NCI-H23 cells assessed as induction of KRAS G12C mutant degradation by measuring downregulation of phospho-ERK protein level at 3 uM measured after 24 hrs by Western blot analysis; assay type: cell-based
[8] = tested on: von Hippel-Lindau disease tumor suppressor/GTPase KRas (Homo sapiens), P01116+P40337 [G12C]; assay: Protac activity at VHL/KRAS G12C mutant in human NCI-H358 cells assessed as induction of KRAS G12C mutant degradation by measuring downregulation of KRAS G12C protein level at 3 uM in presence of cycloheximide measured after 24 hrs by Western blot analysis; assay type: cell-based
[9] = target: T1, von Hippel-Lindau disease tumor suppressor/GTPase KRas; assay: Protac activity at VHL/KRAS G12C mutant in human NCI-H358 cells assessed as induction of KRAS G12C mutant degradation by measuring downregulation of phospho-ERK protein level measured after 24 hrs by Western blot analysis; assay type: cell-based
[10] = target: T1, von Hippel-Lindau disease tumor suppressor/GTPase KRas; assay: Protac activity at VHL/KRAS G12C mutant in human NCI-H358 cells assessed as induction of KRAS G12C mutant degradation by measuring downregulation of KRAS G12C protein level measured after 24 hrs by Western blot analysis; assay type: cell-based
[11] = target: T1, von Hippel-Lindau disease tumor suppressor/GTPase KRas; assay: Protac activity at VHL/KRAS G12C mutant in human NCI-H23 cells assessed as induction of KRAS G12C mutant degradation by measuring downregulation of phospho-ERK protein level measured after 24 hrs by Western blot analysis; assay type: cell-based
[12] = tested on: von Hippel-Lindau disease tumor suppressor/GTPase KRas (Homo sapiens), P01116+P40337 [G12C]; assay: Protac activity at VHL/KRAS G12C mutant in human NCI-H358 cells assessed as induction of KRAS G12C mutant degradation by measuring downregulation of KRAS G12C protein level at 3 uM measured after 24 hrs by Western blot analysis; assay type: cell-based
[13] = tested on: von Hippel-Lindau disease tumor suppressor/GTPase KRas (Homo sapiens), P01116+P40337 [G12C]; assay: Protac activity at VHL/KRAS G12C mutant in human NCI-H358 cells assessed as induction of KRAS G12C mutant degradation by measuring downregulation of phospho-ERK protein level at 3 uM measured after 24 hrs by Western blot analysis; assay type: cell-based
[14] = tested on: GTPase KRas (Homo sapiens), P01116 [G12C]; assay: Reversible covalent binding affinity to KRAS G12C mutant (unknown origin) incubated for 2 hrs and measured by MALDI-TOF-MS analysis
Sequence of GTPase KRas (Homo sapiens), P01116 [G12C] (P01116 whole entry G12C): as the sequence (P01116 whole entry G12C, stated change not applied) above

Sequence of GTPase KRas (P01116 whole entry G12C): as the sequence (P01116 whole entry G12C, stated change not applied) above

Compound | IC50 [1] [µM] | IC50 [2] [µM] | IC50 [3] [µM] | IC50 [4] [µM] | Activity [5] | DC50 [6] [µM] | Activity [7] | Activity [8] | DC50 [9] [µM] | DC50 [10] [µM] | DC50 [11] [µM] | Activity [12] | Activity [13] | Activity [14]
CCC=C(C#N)C(=O)N1CCN(c2nc(OC[C@@H]3CCCN3C)nc3c2CCN(c2cccc4cccc(Cl)c24)C3)C[C@@H]1CC#N | 0.271 | 13.4 | 25.3 | 7.4 |  |  |  |  |  |  |  |  |  | 
CN1CCC[C@H]1COc1nc2c(c(N3CCN(C(=O)C(C#N)=CC(C)(C)C)[C@@H](CC#N)C3)n1)CCN(c1cccc3cccc(Cl)c13)C2 | 0.64 | 0.796 | 16.1 | 6.33 |  |  |  |  |  |  |  |  |  | 
CC=C(C#N)C(=O)N1CCN(c2nc(OC[C@@H]3CCCN3C)nc3c2CCN(c2cccc4cccc(Cl)c24)C3)C[C@@H]1CC#N | 0.0963 | 5.13 | 8.2 | 9.55 |  |  |  |  |  |  |  |  |  | 
C=CC(=O)N1CCN(c2nc(=O)n(-c3c(C)ccnc3C(C)C)c3nc(-c4c(O)cccc4F)c(F)cc23)[C@@H](C)C1 [SOTORASIB] |  | 0.0084 | 50 | 0.112 |  |  |  |  |  |  |  |  |  | 
Cc1ncsc1-c1ccc(CNC(=O)[C@@H]2C[C@@H](O)CN2C(=O)[C@@H](NC(=O)CCOCCCN2CCC[C@H]2COc2nc3c(c(N4CCN(C(=O)/C(C#N)=C/C5CC5)[C@@H](CC#N)C4)n2)CCN(c2cccc4cccc(Cl)c24)C3)C(C)(C)C)cc1 |  | 0.154 |  | 0.244 | Active | 4.53 | Active | Active | 1.68 | 3.61 | 1.44 | Active | Active | 
CC(C)C=C(C#N)C(=O)N1CCN(c2nc(OC[C@@H]3CCCN3C)nc3c2CCN(c2cccc4cccc(Cl)c24)C3)C[C@@H]1CC#N | 0.284 | 13.7 | 50 | 3.15 |  |  |  |  |  |  |  |  |  | 
CN1CCC[C@H]1COc1nc2c(c(N3CCN(C(=O)C(C#N)=CC4CC4)[C@@H](CC#N)C3)n1)CCN(c1cccc3cccc(Cl)c13)C2 | 0.0254 | 4.7 | 13.3 | 5.25 |  |  |  |  |  |  |  |  |  | Active
